From article PMC10224335, “Purification, Identification, and Inhibitory Mechanisms of a Novel ACE Inhibitory Peptide from Torreya grandis” (Nutrients, 2023)
Read-outs that look alike come from different tables or passages of the source. Peptide text beside a SMILES is read from it.

Legend:
pepsin and trypsin = test: Stability against simulated gastrointestinal digestion (pepsin, trypsin); format: in vitro ADME
Description: The simulated gastrointestinal digestion method was applied according to Li et al., with some modifications. In brief, pH 2.0 was adjusted for the VW-7 solution (ultrapure water, c = 0.4 mg/mL). The peptide solution was mixed with pepsin (2%, w/w) for 2 h at 37 °C. The pH was changed to 7.0 after the process, and half of the liquid was withdrawn. The other half was then given trypsin (2%, w/w) and digested at 37 °C for 2 h. Finally, the reaction was terminated by a boiling water bath, and the ACE inhibition rate of the two-step reaction products was measured.
RP-HPLC was used to analyze the liquid obtained after digestion. The mobile phase A was water containing 0.1% TFA, and the mobile phase B was 100% ACN containing 0.1% TFA. The flow rate was set to 1 mL/min, the detection wavelength was 214 nm, and the column temperature was 30 °C.

Cell viability, CCK-8 = format: cell-based, Human; details: human, EA.hy926 cells
Description: (§1) Human umbilical vein endothelial cells (EA.hy926) were grown in DMEM with 10% FBS and 1% penicillin-streptomycin at 37 °C in a humidified environment of 5% CO2.
(§2) Using a cell counting kit-8 (CCK-8) kit, the cytotoxicity of the peptide VNDYLNW in EA.hy926 was assessed. In 96-well cell culture plates, cells were inoculated at a density of 5 × 10^3/well. After 24 h of pre-incubation at 37 ℃ and 5% CO2, 50 µL of peptides with different concentrations were added to achieve the final concentrations of solution of 100, 200, 400, 600, 800, and 1000 µg/mL (using complete medium as the control) for 24 h. Following treatment, the culture medium was removed, 100 µL of medium (without FBS) was added, and 10 µL of CCK-8 was then added to each well. The culture was incubated for 1 h at 37 ℃ and 5% CO2. Finally, the light absorption value at 450 nm was detected by the microplate reader. Relative cell viability was calculated according to Equation (3):(3) Cell viability%=(A − A0)/A1 − A0 × 100 where A1 is the absorbance of cells that are not treated with peptides, A is the absorbance of cells that are treated with peptides, and A0 is the absorbance of the group without cells in the medium.

EA.hy926 cells = test: Cell viability, CCK-8; format: cell-based, Human; details: 0–400 μg/mL, 24 h
Description: as §1, §2

ACE = details: cited from earlier work; for IC50: read-out: IC50 of ACE inhibition
From the text: The ACE inhibitory activity of the remaining peptides was low, and the inhibition rate was below 20%. Here, we measured the I ... || Based on the Lineweaver–Burk plot analysis, the inhibitory mechanism of VW-7 on ACE was investigated. According to Table 3, the Vmax value decreased and the Km value increased as the peptide concentration increased. […] When the peptide binds to ...

cells = details: treatment with 25–100 µg/mL; cited from earlier work
From the text: NO is a messenger molecular medium that provides multiple functions in biological tissues. Previous studies have shown that the production of NO is one of the potential mechanisms for the prevention and treatment of hypertension. Inhibiting ACE can prevent vasodilator breakdown and directly stimulate endothelial cells to produce NO [16]. We cultured EA.hy926 cells in the medium and evaluated the intracellular NO in order to see how VW-7 affected the generation of NO in these cells.

In the case of `CC(C)C[C@H](NC(=O)[C@H](Cc1ccc(O)cc1)NC(=O)[C@H](CC(=O)O)NC(=O)[C@H](CC(N)=O)NC(=O)[C@@H](N)C(C)C)C(=O)N[C@@H](CC(N)=O)C(=O)N[C@@H](Cc1c[nH]c2ccccc12)C(=O)O` [VNDYLNW] (H-VNDYLNW-OH), the “ACE inhibitory action after gastrointestinal digestion” value (pepsin and trypsin; 0.4 mg/mL in ultrapure water, pH 2.0 pepsin 2% w/w 2 h 37 °C, then pH 7.0 trypsin 2% w/w 2 h 37 °C, read-out ACE inhibition rate, p > 0.05) is reported as “remained essentially unaltered”, the “RP-HPLC peak area after two-step digestion” value (pepsin and trypsin; 0.4 mg/mL, pepsin pH 2.0 2 h then trypsin pH 7.0 2 h, 37 °C, RP-HPLC, UV 214 nm) is reported as “did not change” and the viability at 24 h, 600 µg/mL (Cell viability, CCK-8; 600 µg/mL, mean ± SD) is reported as 92.4 ± 2.4%. For the same compound, the viability at 24 h (Cell viability, CCK-8; concentration above 600 µg/mL (up to 1000 µg/mL)) was under 80%, the “toxic effect on EA.hy926 cells” value (EA.hy926 cells) was “no toxic effect” and the “toxic effect on EA.hy926 cells” value (EA.hy926 cells; listed as VW-7) was “no cytotoxicity”.

In the case of EVSQGRP, the “type of ACE inhibition” value (ACE; peptides from sea cucumber) is given as “mixed-type inhibition”.

For NMAINPSKENLCSTFCK, the “type of ACE inhibition” value (ACE; peptide from casein) is listed as “mixed-type inhibition”.

For SAAVGSP, the “type of ACE inhibition” value (ACE; peptides from sea cucumber) is listed as “mixed-type inhibition”.

For “VASVI [reported antihypertensive peptide from Olive Flounder Surimi]”, the “production of NO in cells” value (cells) is given as “significantly increased”.

In the case of VDMF, the IC50 (ACE; peptide extracted from Coix prolamin) is listed as 382 µM.

In the case of VSRHFASYAN, the “type of ACE inhibition” value (ACE; peptides from sea cucumber) is listed as “mixed-type inhibition”.

For VTPVGVPKW, the IC50 (ACE; peptide extracted from Black Cumin seeds) is given as 1.8 µM.
